Data taken from EP3390549B1, “FORMULATIONS CONTAINING A SOLID SOLVENT” (Merck Patent GmbH, priority 2015, dated 2017).

Experiment: Solubility limit of the solid (second) organic solvent in the liquid (first) organic solvent
Format: physicochemical
Conditions: dissolved at 40°C, stability on standing up to a week at 25°C
Description: The differences between the Hansen Solubility parameter Hd, Hp and Hh of the first and the second solvent can be realized individually or collectively. In a very preferred embodiment, at least two and more preferred all the differences between the Hansen Solubility parameter Hd, Hp and Hh of the first and the second solvent are commonly realized.

[1] = in liquid solvent 3-Phenoxy toluene

Solubility limit [1]	Solubility limit (in liquid solvent α-Pinene oxide)	Solubility limit (in liquid solvent β-Caryophyllene)	SMILES
>70%			O=C1CCCCCCCCCCCCCCO1 [ω-Pentadecalactone]
55%	60%	35%	C=C1CC[C@H]2O[C@]2(C)CC[C@@H]2[C@@H]1CC2(C)C [Caryophyllene oxide]
